Experimental data as given in ChEMBL document CHEMBL3046845, “A facile synthesis of novel optically active R,R-2-(4-(2-(4-(5-chloro-3-halo-pyridin-2-yloxy)-phenoxy)-propionyloxy)-phenoxy)-propionic acid esters using cyanuric chloride as potential herbicide” (Chin Chem Lett, 2011).

How the values were obtained:
[1] = test system: Alopecurus myosuroides; experiment: Herbicidal activity against Alopecurus myosuroides assessed as growth inhibition at 125 g/ha after 3 weeks relative to control; type: functional; conditions: 504 h, read-out: GI
[2] = Phytoxicity against Hordeum vulgare (barley) assessed as growth inhibition at 125 g/ha after 3 weeks relative to control; type: organism-based; conditions: in vivo, read-out: GI
[3] = test system: Avena fatua; experiment: Herbicidal activity against Avena fatua assessed as growth inhibition at 125 g/ha after 3 weeks relative to control; type: functional; conditions: 504 h, read-out: GI
[4] = test system: Echinochloa crus-galli; experiment: Herbicidal activity against Echinochloa crus-galli (barnyard grass) assessed as growth inhibition at 125 g/ha after 3 weeks relative to control; type: functional; conditions: 504 h, read-out: GI
[5] = Phytotoxicity against Triticum aestivum (wheat) assessed as growth inhibition at 125 g/ha after 3 weeks relative to control; type: organism-based; conditions: in vivo, read-out: GI

## CCCCOC(=O)[C@@H](C)Oc1ccc(Oc2ncc(Cl)cc2F)cc1
[1]
  inhibition of growth at 125 g/ha: 54%
[2]
  inhibition at 504 h: 25%
[3]
  inhibition of growth at 125 g/ha: 62%
[4]
  inhibition of growth at 125 g/ha: 55%
[5]
  inhibition at 504 h: 15%

## CCCCOC(=O)[C@@H](C)Oc1ccc(OC(=O)[C@@H](C)Oc2ccc(Oc3ncc(Cl)cc3F)cc2)cc1
[1]
  inhibition of growth at 125 g/ha: 62%
[2]
  inhibition at 504 h: 10%
[3]
  inhibition of growth at 125 g/ha: 63%
[4]
  inhibition of growth at 125 g/ha: 54%
[5]
  inhibition at 504 h: 5%

## COC(=O)[C@@H](C)Oc1ccc(OC(=O)[C@@H](C)Oc2ccc(Oc3ncc(Cl)cc3Cl)cc2)cc1
[1]
  inhibition of growth at 125 g/ha: 42%
[2]
  inhibition at 504 h: 15%
[3]
  inhibition of growth at 125 g/ha: 43%
[4]
  inhibition of growth at 125 g/ha: 44%
[5]
  inhibition at 504 h: 0%

## CCOC(=O)[C@@H](C)Oc1ccc(Oc2ncc(Cl)cc2Cl)cc1
[1]
  inhibition of growth at 125 g/ha: 45%
[2]
  inhibition at 504 h: 25%
[3]
  inhibition of growth at 125 g/ha: 50%
[4]
  inhibition of growth at 125 g/ha: 51%
[5]
  inhibition at 504 h: 10%

## COC(=O)[C@@H](C)Oc1ccc(Oc2ncc(Cl)cc2F)cc1
[1]
  inhibition of growth at 125 g/ha: 75%
[2]
  inhibition at 504 h: 35%
[3]
  inhibition of growth at 125 g/ha: 90%
[4]
  inhibition of growth at 125 g/ha: 80%
[5]
  inhibition at 504 h: 10%

## COC(=O)[C@@H](C)Oc1ccc(OC(=O)[C@@H](C)Oc2ccc(Oc3ncc(Cl)cc3F)cc2)cc1
[1]
  inhibition of growth at 125 g/ha: 80%
[2]
  inhibition at 504 h: 10%
[3]
  inhibition of growth at 125 g/ha: 90%
[4]
  inhibition of growth at 125 g/ha: 80%
[5]
  inhibition at 504 h: 0%

## CC(C)OC(=O)[C@@H](C)Oc1ccc(Oc2ncc(Cl)cc2F)cc1
[1]
  inhibition of growth at 125 g/ha: 73%
[2]
  inhibition at 504 h: 30%
[3]
  inhibition of growth at 125 g/ha: 81%
[4]
  inhibition of growth at 125 g/ha: 57%
[5]
  inhibition at 504 h: 10%

## C#CCOC(=O)[C@@H](C)Oc1ccc(OC(=O)[C@@H](C)Oc2ccc(Oc3ncc(Cl)cc3F)cc2)cc1
[1]
  inhibition of growth at 125 g/ha: 100%
[2]
  inhibition at 504 h: 0%
[3]
  inhibition of growth at 125 g/ha: 100%
[4]
  inhibition of growth at 125 g/ha: 92%
[5]
  inhibition at 504 h: 0%

## CCCOC(=O)[C@@H](C)Oc1ccc(OC(=O)[C@@H](C)Oc2ccc(Oc3ncc(Cl)cc3Cl)cc2)cc1
[1]
  inhibition of growth at 125 g/ha: 36%
[2]
  inhibition at 504 h: 10%
[3]
  inhibition of growth at 125 g/ha: 50%
[4]
  inhibition of growth at 125 g/ha: 45%
[5]
  inhibition at 504 h: 0%

## CCOC(=O)[C@@H](C)Oc1ccc(Oc2ncc(Cl)cc2F)cc1
[1]
  inhibition of growth at 125 g/ha: 82%
[2]
  inhibition at 504 h: 27%
[3]
  inhibition of growth at 125 g/ha: 90%
[4]
  inhibition of growth at 125 g/ha: 75%
[5]
  inhibition at 504 h: 5%

## C#CCOC(=O)[C@@H](C)Oc1ccc(OC(=O)[C@@H](C)Oc2ccc(Oc3ncc(Cl)cc3Cl)cc2)cc1
[1]
  inhibition of growth at 125 g/ha: 60%
[2]
  inhibition at 504 h: 5%
[3]
  inhibition of growth at 125 g/ha: 50%
[4]
  inhibition of growth at 125 g/ha: 53%
[5]
  inhibition at 504 h: 0%

## COC(=O)[C@@H](C)Oc1ccc(Oc2ncc(Cl)cc2Cl)cc1
[1]
  inhibition of growth at 125 g/ha: 30%
[2]
  inhibition at 504 h: 30%
[3]
  inhibition of growth at 125 g/ha: 30%
[4]
  inhibition of growth at 125 g/ha: 40%
[5]
  inhibition at 504 h: 10%

## CCCOC(=O)[C@@H](C)Oc1ccc(Oc2ncc(Cl)cc2Cl)cc1
[1]
  inhibition of growth at 125 g/ha: 35%
[2]
  inhibition at 504 h: 18%
[3]
  inhibition of growth at 125 g/ha: 45%
[4]
  inhibition of growth at 125 g/ha: 40%
[5]
  inhibition at 504 h: 15%

## CCOC(=O)[C@@H](C)Oc1ccc(OC(=O)[C@@H](C)Oc2ccc(Oc3ncc(Cl)cc3F)cc2)cc1
[1]
  inhibition of growth at 125 g/ha: 90%
[2]
  inhibition at 504 h: 10%
[3]
  inhibition of growth at 125 g/ha: 93%
[4]
  inhibition of growth at 125 g/ha: 80%
[5]
  inhibition at 504 h: 0%

## CCOC(=O)[C@@H](C)Oc1ccc(OC(=O)[C@@H](C)Oc2ccc(Oc3ncc(Cl)cc3Cl)cc2)cc1
[1]
  inhibition of growth at 125 g/ha: 52%
[2]
  inhibition at 504 h: 15%
[3]
  inhibition of growth at 125 g/ha: 54%
[4]
  inhibition of growth at 125 g/ha: 54%
[5]
  inhibition at 504 h: 0%

## CCCOC(=O)[C@@H](C)Oc1ccc(OC(=O)[C@@H](C)Oc2ccc(Oc3ncc(Cl)cc3F)cc2)cc1
[1]
  inhibition of growth at 125 g/ha: 79%
[2]
  inhibition at 504 h: 15%
[3]
  inhibition of growth at 125 g/ha: 89%
[4]
  inhibition of growth at 125 g/ha: 70%
[5]
  inhibition at 504 h: 0%

## CC(C)OC(=O)[C@@H](C)Oc1ccc(OC(=O)[C@@H](C)Oc2ccc(Oc3ncc(Cl)cc3F)cc2)cc1
[1]
  inhibition of growth at 125 g/ha: 78%
[2]
  inhibition at 504 h: 12%
[3]
  inhibition of growth at 125 g/ha: 85%
[4]
  inhibition of growth at 125 g/ha: 65%
[5]
  inhibition at 504 h: 0%

## CCCOC(=O)[C@@H](C)Oc1ccc(Oc2ncc(Cl)cc2F)cc1
[1]
  inhibition of growth at 125 g/ha: 76%
[2]
  inhibition at 504 h: 35%
[3]
  inhibition of growth at 125 g/ha: 84%
[4]
  inhibition of growth at 125 g/ha: 62%
[5]
  inhibition at 504 h: 10%

## C#CCOC(=O)[C@@H](C)Oc1ccc(Oc2ncc(Cl)cc2Cl)cc1
[1]
  inhibition of growth at 125 g/ha: 57%
[2]
  inhibition at 504 h: 20%
[3]
  inhibition of growth at 125 g/ha: 47%
[4]
  inhibition of growth at 125 g/ha: 45%
[5]
  inhibition at 504 h: 0%

## C#CCOC(=O)[C@@H](C)Oc1ccc(Oc2ncc(Cl)cc2F)cc1 [CLODINAFOP PROPARGYL]
[1]
  inhibition of growth at 125 g/ha: 88%
[2]
  inhibition at 504 h: 20%
[3]
  inhibition of growth at 125 g/ha: 95%
[4]
  inhibition of growth at 125 g/ha: 82%
[5]
  inhibition at 504 h: 0%
